The target in the assay is T1, mouse VISTA (mVISTA) (Mus musculus, UniProt Q9D659).
T1 construct: expressed in transfected cells; host or cells: Human embryonic kidney 293T cells
T1 sequence (Q9D659 33-308): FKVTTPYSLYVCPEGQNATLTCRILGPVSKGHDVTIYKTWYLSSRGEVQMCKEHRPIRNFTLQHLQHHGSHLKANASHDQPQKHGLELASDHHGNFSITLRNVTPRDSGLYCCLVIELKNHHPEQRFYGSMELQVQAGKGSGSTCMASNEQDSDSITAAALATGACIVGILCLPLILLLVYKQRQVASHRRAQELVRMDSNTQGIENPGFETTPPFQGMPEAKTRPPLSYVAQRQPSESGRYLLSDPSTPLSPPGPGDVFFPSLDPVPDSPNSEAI
The assay can be described thus: Cell-Based Binding High-Content Assay For mVISTA (HC CBA mVISTA). To be noted: 293T cells expressing mouse VISTA; competition with biotinylated peptide (2 nM); read-out: HC CBA mVISTA IC50. The procedure, abridged:
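Competition of compound with a biotinylated peptide (final 2 nM, 30 min at RT) for binding to mVISTA on 293T cells, run under no-wash or wash (1 h compound preincubation then removal) formats. Readout by Alexa 647–streptavidin imaging on a high-content platform; four-parameter logistic fit gave IC50.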

Structures are written as SMILES. Positions of bridges follow the written chain, without caps; N, C: chain ends. Non-standard residues stand in square brackets, D forms with d. Residues, ends and D or L forms follow the SMILES beside them. Ahp(2) = CCCCC[C@H](N)C(=O)O; NHexGly = CCCCCCNCC(=O)O; Nle = CCCC[C@H](N)C(=O)O; Orn = NCCC[C@H](N)C(=O)O; Dab = NCC[C@H](N)C(=O)O

Regarding `CCCCCCN1CC(=O)N[C@@H](Cc2ccc(O)cc2)C(=O)N[C@@H](CCCC)C(=O)N[C@@H](CC(=O)O)C(=O)N[C@@H](CCCNC(=N)N)C(=O)N[C@@H](CC(C)C)C(=O)N[C@@H](CCCCC)C(=O)N2CCC[C@H]2C(=O)N[C@@H](C(C)C)C(=O)N[C@@H](CC(N)=O)C(=O)N[C@H](C(=O)NCC(=O)O)CSCC(=O)N[C@@H](Cc2ccccc2)C(=O)N[C@@H](Cc2ccc(O)cc2)C(=O)N[C@@H](CC(=O)O)C1=O` [Example 1029] ({CH2CO}-FYD[NHexGly]Y[Nle]DRL[Ahp(2)]PVNCG-OH; thioether N-14), the IC50 – broadly, the midpoint of a concentration-inhibition curve – came to 1.1 nM.
`CCCCCCN1CC(=O)N[C@@H](Cc2ccc(O)cc2)C(=O)N[C@@H](CC(C)C)C(=O)N[C@@H](CC(N)=O)C(=O)N[C@@H](CCCNC(=N)N)C(=O)N[C@@H](CC(C)C)C(=O)N[C@@H](CCCCC)C(=O)N2CCC[C@H]2C(=O)N[C@@H](C(C)C)C(=O)N[C@@H](CCCNC(=N)N)C(=O)N[C@H](C(=O)NCC(=O)O)CSCC(=O)N[C@@H](Cc2ccccc2)C(=O)N[C@@H](Cc2ccc(O)cc2)C(=O)N[C@@H](CC(=O)O)C1=O` [Example 1030] ({CH2CO}-FYD[NHexGly]YLNRL[Ahp(2)]PVRCG-OH; thioether N-14): the IC50 was 34.5 nM.
Consider `CCCCCCN1CC(=O)N[C@@H](Cc2ccc(O)cc2)C(=O)N[C@@H](CCCCC)C(=O)N[C@@H](CC(N)=O)C(=O)N[C@@H](CCCNC(=N)N)C(=O)N[C@@H](CC(C)C)C(=O)N[C@@H](CCCCC)C(=O)N2CCC[C@H]2C(=O)N[C@@H](C(C)C)C(=O)N[C@@H](CO)C(=O)N[C@H](C(=O)NCC(N)=O)CSCC(=O)N[C@@H](Cc2ccccc2)C(=O)N[C@@H](Cc2ccc(O)cc2)C(=O)N[C@@H](CC(=O)O)C1=O` [Example 1031] ({CH2CO}-FYD[NHexGly]Y[Ahp(2)]NRL[Ahp(2)]PVSCG-NH2; thioether N-14), for which the IC50 is 34.7 nM.
Regarding `CCCCCCN1CC(=O)N[C@@H](Cc2ccc(O)cc2)C(=O)N[C@@H](CCCCC)C(=O)N[C@@H](CC(N)=O)C(=O)N[C@@H](C)C(=O)N[C@@H](CC(C)C)C(=O)N[C@@H](CCCCC)C(=O)N2CCC[C@H]2C(=O)N[C@@H](C(C)C)C(=O)N[C@@H](CO)C(=O)N[C@H](C(=O)NCC(N)=O)CSCC(=O)N[C@@H](Cc2ccccc2)C(=O)N[C@@H](Cc2ccc(O)cc2)C(=O)N[C@@H](CC(=O)O)C1=O` [Example 1032] ({CH2CO}-FYD[NHexGly]Y[Ahp(2)]NAL[Ahp(2)]PVSCG-NH2; thioether N-14), the IC50 worked out at 11.1 nM.
Turning to `CCCCCCN1CC(=O)N[C@@H](Cc2ccc(O)cc2)C(=O)N[C@@H](CCCC)C(=O)N[C@@H](CC(N)=O)C(=O)N[C@@H](CCCNC(=N)N)C(=O)N[C@@H](CC(C)C)C(=O)N[C@@H](CCCCC)C(=O)N2CCC[C@H]2C(=O)N[C@@H](C(C)C)C(=O)N[C@@H](CO)C(=O)N[C@H](C(=O)NCC(N)=O)CSCC(=O)N[C@@H](Cc2ccccc2)C(=O)N[C@@H](Cc2ccc(O)cc2)C(=O)N[C@@H](CC(=O)O)C1=O` [Example 1033] ({CH2CO}-FYD[NHexGly]Y[Nle]NRL[Ahp(2)]PVSCG-NH2; thioether N-14), the IC50 is 16.7 nM.
With `CCCCCCN1CC(=O)N[C@@H](Cc2ccc(O)cc2)C(=O)N[C@@H](CCCCC)C(=O)N[C@@H](CC(N)=O)C(=O)N[C@@H](CCCNC(=N)N)C(=O)N[C@@H](CC(C)C)C(=O)N[C@@H](CCCCC)C(=O)N2CCC[C@H]2C(=O)N[C@@H](C(C)C)C(=O)N[C@@H](CO)C(=O)N[C@H](C(=O)NCC(=O)O)CSCC(=O)N[C@@H](Cc2ccccc2)C(=O)N[C@@H](Cc2ccc(O)cc2)C(=O)N[C@@H](CC(=O)O)C1=O` [Example 1034] ({CH2CO}-FYD[NHexGly]Y[Ahp(2)]NRL[Ahp(2)]PVSCG-OH; thioether N-14) the figure was 3.7 nM.
For the compound `CCCCCCN1CC(=O)N[C@@H](Cc2ccc(O)cc2)C(=O)N[C@@H](CCCCC)C(=O)N[C@@H](CC(N)=O)C(=O)N[C@@H](CCCCN)C(=O)N[C@@H](CC(C)C)C(=O)N[C@@H](CCCCC)C(=O)N2CCC[C@H]2C(=O)N[C@@H](C(C)C)C(=O)N[C@@H](CO)C(=O)N[C@H](C(=O)NCC(N)=O)CSCC(=O)N[C@@H](Cc2ccccc2)C(=O)N[C@@H](Cc2ccc(O)cc2)C(=O)N[C@@H](CC(=O)O)C1=O` [Example 1035] ({CH2CO}-FYD[NHexGly]Y[Ahp(2)]NKL[Ahp(2)]PVSCG-NH2; thioether N-14), the IC50 is 30.4 nM.
With `CCCCCCN1CC(=O)N[C@@H](Cc2ccc(O)cc2)C(=O)N[C@@H](CCCCC)C(=O)N[C@@H](CC(N)=O)C(=O)N[C@@H](CCCN)C(=O)N[C@@H](CC(C)C)C(=O)N[C@@H](CCCCC)C(=O)N2CCC[C@H]2C(=O)N[C@@H](C(C)C)C(=O)N[C@@H](CO)C(=O)N[C@H](C(=O)NCC(N)=O)CSCC(=O)N[C@@H](Cc2ccccc2)C(=O)N[C@@H](Cc2ccc(O)cc2)C(=O)N[C@@H](CC(=O)O)C1=O` [Example 1036] ({CH2CO}-FYD[NHexGly]Y[Ahp(2)]N[Orn]L[Ahp(2)]PVSCG-NH2; thioether N-14) the figure was 20.1 nM.
With `CCCCCCN1CC(=O)N[C@@H](Cc2ccc(O)cc2)C(=O)N[C@@H](CCCCC)C(=O)N[C@@H](CC(N)=O)C(=O)N[C@@H](CCN)C(=O)N[C@@H](CC(C)C)C(=O)N[C@@H](CCCCC)C(=O)N2CCC[C@H]2C(=O)N[C@@H](C(C)C)C(=O)N[C@@H](CO)C(=O)N[C@H](C(=O)NCC(N)=O)CSCC(=O)N[C@@H](Cc2ccccc2)C(=O)N[C@@H](Cc2ccc(O)cc2)C(=O)N[C@@H](CC(=O)O)C1=O` [Example 1037] ({CH2CO}-FYD[NHexGly]Y[Ahp(2)]N[Dab]L[Ahp(2)]PVSCG-NH2; thioether N-14) the figure was 36.4 nM.
Under `CCCCCCN1CC(=O)N[C@@H](Cc2ccc(O)cc2)C(=O)N[C@@H](CCCCC)C(=O)N[C@@H](CC(=O)O)C(=O)N[C@@H](CCCNC(=N)N)C(=O)N[C@@H](CC(C)C)C(=O)N[C@@H](CCCCC)C(=O)N2CCC[C@H]2C(=O)N[C@@H](C(C)C)C(=O)N[C@@H](CO)C(=O)N[C@H](C(=O)NCC(N)=O)CSCC(=O)N[C@@H](Cc2ccccc2)C(=O)N[C@@H](Cc2ccc(O)cc2)C(=O)N[C@@H](CC(=O)O)C1=O` [Example 1038] ({CH2CO}-FYD[NHexGly]Y[Ahp(2)]DRL[Ahp(2)]PVSCG-NH2; thioether N-14) stands 38.4 nM.
As for `CCCCCCN1CC(=O)N[C@@H](Cc2ccc(O)cc2)C(=O)N[C@@H](CCCCC)C(=O)NCC(=O)N[C@@H](CCCNC(=N)N)C(=O)N[C@@H](CC(C)C)C(=O)N[C@@H](CCCCC)C(=O)N2CCC[C@H]2C(=O)N[C@@H](C(C)C)C(=O)N[C@@H](CO)C(=O)N[C@H](C(=O)NCC(N)=O)CSCC(=O)N[C@@H](Cc2ccccc2)C(=O)N[C@@H](Cc2ccc(O)cc2)C(=O)N[C@@H](CC(=O)O)C1=O` [Example 1039] ({CH2CO}-FYD[NHexGly]Y[Ahp(2)]GRL[Ahp(2)]PVSCG-NH2; thioether N-14), the IC50 was 2.2 nM.
With `CCCCCCN1CC(=O)N[C@@H](Cc2ccc(O)cc2)C(=O)N[C@@H](CC(C)C)C(=O)N[C@@H](CC(N)=O)C(=O)N[C@@H](CCCNC(=N)N)C(=O)N[C@@H](CC(C)C)C(=O)N[C@@H](CCCCC)C(=O)N2CCC[C@H]2C(=O)N[C@@H](C(C)C)C(=O)N[C@@H](CO)C(=O)N[C@H](C(=O)NCC(N)=O)CSCC(=O)N[C@@H](Cc2ccccc2)C(=O)N[C@@H](Cc2ccc(O)cc2)C(=O)N[C@@H](CC(=O)O)C1=O` [Example 1040] ({CH2CO}-FYD[NHexGly]YLNRL[Ahp(2)]PVSCG-NH2; thioether N-14) the figure was 5.4 nM.

The record behind these values is patent US20240218022A1, “ANTI-VISTA MACROCYCLIC PEPTIDES AND COMPOSITIONS” (BRISTOL-MYERS SQUIBB COMPANY, priority 2022, published 2024).
